From US7732134B2, “Methods to predict cholesterol elevation during immunosuppressant therapy” (Novartis AG, priority 2002, dated 2010)

Key:
[1] = RAD B251 clinical trial: HDL cholesterol levels by IL-1β genotype and treatment group; type: in vivo, human; details: last visit
Description: (§1) The RAD B251 study was a randomized, multicenter, double-blind, parallel group study of the efficacy and safety of everolimus (Certican™) (RAD) versus mycophenolate mofetil (MMF) used in combination with cyclosporine (CsA) (NEORAL®) and prednisone. The study consisted of three periods: a Screening period, a Baseline period and a Double-Blind Treatment period. Following the Baseline assessments, patients who meet the inclusion/exclusion criteria were randomized into one of the three treatment groups (1:1:1) once it has been ascertained that the allograft is functional and that oral medication can be tolerated (within 48 hours post-transplantation). Determination of allograft function was by the investigator's judgement and was based upon adequate urine output and evidence of falling creatinine levels. The day of randomization and administration of the first dose of study medication was recorded as Day 1 of the study. […]
(§2) A treatment period of three years followed transplantation. […] Renal biopsies were required at Baseline (may be intra-operative) and at the time of any suspected rejection. Blinded study drug administration ceased at 3 years.
(§3) Male and female patients, 16-65 years of age who are scheduled to undergo primary cadaveric, living unrelated or non-HLA identical related donor kidney transplantation, were allowed to enter the study. Patients who discontinued the study prematurely were not replaced. Each patient had to meet all of the inclusion/exclusion criteria to be eligible for entry into the study.
(§4) A total of 82 unique samples from the RAD B251 clinical trial were genotyped upon their consent to participate in the pharmacogenetic evaluation. This represents about 15% of the total population that participated in the RAD B251 clinical trial. Blood samples from each patient were collected at the individual trial sites and then shipped to Covance (Geneva, Switzerland). The genomic DNA of each patient was extracted from the blood by Covance using the PUREGENE™ DNA Isolation Kit (D-50K) (Gentra, Minneapolis, Minn.).
(§5) An analysis of covariance model was used for the analysis of the effect of genotype and treatment on cholesterol levels using the 24-month lab_b.sd2 RADB 251 clinical data set. Terms in the model include the final cholesterol level, the initial cholesterol level as the covariant, and the genotype and treatment as the main effectors. The odds ratios, 95% confidence limits, and Chi-square analysis were calculated where applicable. All statistical analyses were performed using the SAS 8.02 software. To correct for multiple testing, the Bonferroni correction method was performed.

[2] = RAD B251 clinical trial: LDL cholesterol levels by IL-1β genotype and treatment group; type: in vivo, human; details: last visit
Description: The RAD B251 study was a randomized, multicenter, double-blind, parallel group study of the efficacy and safety of everolimus (Certican™) (RAD) versus mycophenolate mofetil (MMF) used in combination with cyclosporine (CsA) (NEORAL®) and prednisone. The study consisted of three periods: a Screening period, a Baseline period and a Double-Blind Treatment period. Following the Baseline assessments, patients who meet the inclusion/exclusion criteria were randomized into one of the three treatment groups (1:1:1) once it has been ascertained that the allograft is functional and that oral medication can be tolerated (within 48 hours post-transplantation). Determination of allograft function was by the investigator's judgement and was based upon adequate urine output and evidence of falling creatinine levels. The day of randomization and administration of the first dose of study medication was recorded as Day 1 of the study. The three treatment groups are described below: • Dose Level 1: 0.75 mg RAD bid+NEORAL®+prednisone • Dose Level 2: 1.5 mg RAD bid+NEORAL®+prednisone • Comparator 1 g MMF bid+NEORAL®+prednisone Concomitant Therapy Initiation and Maintenance of NEORAL®
as §2, §3, §4, §5

[3] = RAD B251 clinical trial: total cholesterol levels by IL-1β genotype and treatment group; type: in vivo, human; details: for LS Mean Total Cholesterol Levels: RAD (1.5 and 3.0 mg/day), last visit; for odds ratio for increase in total blood cholesterol levels to a final concentration ≧240 mg/dL: RAD/NEORAL® regimen
Description: as §1, with “Following the Baseline assessments, patients who meet the inclusion/exclusion criteria were randomized into one of the three treatment groups (1:1:1) once it has been ascertained that the allograft is functional and that oral medication can be tolerated (within 48 hours post-transplantation).” left out
as §2, §3
(The values on the figures, etc. refer to the absolute serum cholesterol levels at the last visit, however during the statistical analysis this value was defined as the dependent variable and the cholesterol level at baseline as the independent variable thus automatically taking into consideration the baseline level).
as §4, with “Switzerland).” for “Switzerland). The genomic DNA of each patient was extracted from the blood by Covance using the PUREGENE™ DNA Isolation Kit (D-50K) (Gentra, Minneapolis, Minn.).”
as §5, with “performed. […]” for “performed.”

cholesterol biosynthesis = details: See El-Omar et al.; cited from earlier work
[4] = (−31) IL-1β CC genotype, MMF (2 mg/day)
[5] = (−31) IL-1β CT genotype, MMF (2 mg/day)
[6] = (−31) IL-1β TT genotype, MMF (2 mg/day)
[7] = (−511) IL-1β CC genotype, MMF (2 mg/day)
[8] = (−511) IL-1β CT genotype, MMF (2 mg/day)
[9] = (−511) IL-1β TT genotype, MMF (2 mg/day)
[10] = (−31) IL-1β CC genotype, RAD (1.5 and 3.0 mg/day)
[11] = (−31) IL-1β CT genotype, RAD (1.5 and 3.0 mg/day)
[12] = (−31) IL-1β TT genotype, RAD (1.5 and 3.0 mg/day)
[13] = (−511) IL-1β CC genotype, RAD (1.5 and 3.0 mg/day)
[14] = (−511) IL-1β CT genotype, RAD (1.5 and 3.0 mg/day)
[15] = (−511) IL-1β TT genotype, RAD (1.5 and 3.0 mg/day)

COc1c(C)c2c(c(O)c1C/C=C(\C)CCC(=O)OCCN1CCOCC1)C(=O)OC2 [MMF, mycophenolate mofetil]
LS Mean HDL levels [1, 4]: 50.4 mg/dL | LS Mean HDL levels [1, 5]: 56.8 mg/dL | LS Mean HDL levels [1, 6]: 45.5 mg/dL | LS Mean HDL levels [1, 7]: 45.5 mg/dL | LS Mean HDL levels [1, 8]: 56.8 mg/dL | LS Mean HDL levels [1, 9]: 50.4 mg/dL | LS Mean LDL Levels [2, 4]: 143.1 mg/dL | LS Mean LDL Levels [2, 5]: 119.8 mg/dL | LS Mean LDL Levels [2, 6]: 107.8 mg/dL | LS Mean LDL Levels [2, 7]: 113.9 mg/dL | LS Mean LDL Levels [2, 8]: 118.6 mg/dL | LS Mean LDL Levels [2, 9]: 143.7 mg/dL

CO[C@H]1C[C@@H]2CC[C@@H](C)[C@@](O)(O2)C(=O)C(=O)N2CCCC[C@H]2C(=O)O[C@H]([C@H](C)C[C@@H]2CC[C@@H](OCCO)[C@H](OC)C2)CC(=O)[C@H](C)/C=C(\C)[C@@H](O)[C@@H](OC)C(=O)[C@H](C)C[C@H](C)/C=C/C=C/C=C/1C [RAD, everolimus]
LS Mean HDL levels [1, 10]: 65.1 mg/dL | LS Mean HDL levels [1, 11]: 55 mg/dL | LS Mean HDL levels [1, 12]: 48.4 mg/dL | LS Mean HDL levels [1, 13]: 47.6 mg/dL | LS Mean HDL levels [1, 14]: 54.9 mg/dL | LS Mean HDL levels [1, 15]: 68.4 mg/dL | LS Mean Total Cholesterol Levels ([3]; (−31) IL-1β CC genotype): 291.1 mg/dL | LS Mean Total Cholesterol Levels ([3]; (−31) IL-1β CT genotype): 240.4 mg/dL | LS Mean Total Cholesterol Levels ([3]; (−31) IL-1β TT genotype): 216.6 mg/dL | LS Mean Total Cholesterol Levels ([3]; (−511) IL-1β CC genotype): 217.3 mg/dL | LS Mean Total Cholesterol Levels ([3]; (−511) IL-1β CT genotype): 242.9 mg/dL | LS Mean Total Cholesterol Levels ([3]; (−511) IL-1β TT genotype): 290.3 mg/dL | odds ratio for increase in total blood cholesterol levels to a final concentration ≧240 mg/dL ([3]; patients with a C at position (-31) in the IL-1β gene promoter (CC-CT vs TT)): 7.23 | odds ratio for increase in total blood cholesterol levels to a final concentration ≧240 mg/dL ([3]; patients with a T at position (-511) in the IL-1β gene promoter (CT-TT vs CC)): 5.67 | LS Mean LDL Levels [2, 10]: 145.1 mg/dL | LS Mean LDL Levels [2, 11]: 124.1 mg/dL | LS Mean LDL Levels [2, 12]: 112.2 mg/dL | LS Mean LDL Levels [2, 13]: 112.5 mg/dL | LS Mean LDL Levels [2, 14]: 123.6 mg/dL | LS Mean LDL Levels [2, 15]: 144.5 mg/dL

IL-1β: interleukin-1-beta, cytokine reported to inhibit cholesterol biosynthesis
inhibition of cholesterol biosynthesis (cholesterol biosynthesis): 25%
